In PubChem BioAssay AID1918991 (Molecular Pharmacology Branch, DTP, NCI, 2023):

Tested on: 186277-243-T-J2-PDC complex spheroid growth
Experiment: Anticancer human tumor 186277-243-T-J2-PDC patient-derived colon adenocarcinoma cell line growth inhibition [AhR]
Conditions: for IC50: curve of first compound; for viability, T/C: stronger effect = lower value
Outline: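 Agents were dosed in half-log steps down from roughly clinical Cmax, or from 10 microM where Cmax was unknown, alone and with AhR antagonists. Read-out: percent test/control growth of tumor spheroids containing HUVEC and MSC stromal cells.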

[1] = second compound 0.1 µM, first compound 0.0316 µM
[2] = second compound 0.1 µM, first compound 0.1 µM
[3] = second compound 0.1 µM, first compound 0.316 µM
[4] = second compound 0.1 µM, first compound 1 µM
[5] = second compound 0.1 µM, first compound 3.16 µM
[6] = second compound 0.1 µM, first compound 10 µM
[7] = second compound 0.316 µM, first compound 0.0316 µM
[8] = second compound 0.316 µM, first compound 0.1 µM
[9] = second compound 0.316 µM, first compound 0.316 µM
[10] = second compound 0.316 µM, first compound 1 µM
[11] = second compound 0.316 µM, first compound 3.16 µM
[12] = second compound 0.316 µM, first compound 10 µM
[13] = second compound 1 µM, first compound 0.0316 µM
[14] = second compound 1 µM, first compound 0.1 µM
[15] = second compound 1 µM, first compound 0.316 µM
[16] = second compound 1 µM, first compound 1 µM
[17] = second compound 1 µM, first compound 3.16 µM
[18] = second compound 1 µM, first compound 10 µM
[19] = second compound 3.16 µM, first compound 0.0316 µM
[20] = second compound 3.16 µM, first compound 0.1 µM
[21] = second compound 3.16 µM, first compound 0.316 µM
[22] = second compound 3.16 µM, first compound 1 µM
[23] = second compound 3.16 µM, first compound 3.16 µM
[24] = second compound 3.16 µM, first compound 10 µM
[25] = second compound 10 µM, first compound 0.0316 µM
[26] = second compound 10 µM, first compound 0.1 µM
[27] = second compound 10 µM, first compound 0.316 µM
[28] = second compound 10 µM, first compound 1 µM
[29] = second compound 10 µM, first compound 3.16 µM
[30] = second compound 10 µM, first compound 10 µM
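Also: spheroids exposed to compounds for seven days before the viability read.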
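For viability, T/C in this document: luminescent signal used as a stand-in for viable cell amount; 100% = DMSO vehicle control wells.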

Row | Compound | IC50 (second compound 0.1 µM) | IC50 (second compound 0.316 µM) | IC50 (second compound 1 µM) | IC50 (second compound 3.16 µM) | IC50 (second compound 10 µM) | viability, T/C [1] | viability, T/C [2] | viability, T/C [3] | viability, T/C [4] | viability, T/C [5] | viability, T/C [6] | viability, T/C [7] | viability, T/C [8] | viability, T/C [9] | viability, T/C [13] | viability, T/C [14] | viability, T/C [19] | viability, T/C [20] | viability, T/C [25] | viability, T/C [26] | also measured
1 | COc1cc(Nc2ncc3c(n2)-c2ccc(Cl)cc2C(c2c(F)cccc2OC)=NC3)ccc1C(=O)O + Cc1cncc(-c2nc(NCCc3c[nH]c4ccccc34)c3ncn(C(C)C)c3n2)c1 | > 10000 nM | > 10000 nM | > 10000 nM | > 10000 nM | < 31.6 nM | 90.2% | 77.9% | 70.2% | 61.6% | 70.5% | 74.5% | 91.9% | 78.6% | 72.3% | 96.9% | 75.4% | 93.2% | 71.4% | 37.9% | 27.4% | viability, T/C [10]: 61.8%; viability, T/C [11]: 67.1%; viability, T/C [12]: 72.2%; viability, T/C [15]: 74.4%; viability, T/C [16]: 67.1%; viability, T/C [17]: 64.3%; viability, T/C [18]: 70.6%; viability, T/C [21]: 71.9%; viability, T/C [22]: 59.4%; viability, T/C [23]: 63%; viability, T/C [24]: 71.5%; viability, T/C [27]: 23.2%; viability, T/C [28]: 24.6%; viability, T/C [29]: 23.8%; viability, T/C [30]: 31.6%
2 | Cn1ncnc1C1c2n[nH]c(=O)c3cc(F)cc(c23)NC1c1ccc(F)cc1 (stereo not given) + Cc1cncc(-c2nc(NCCc3c[nH]c4ccccc34)c3ncn(C(C)C)c3n2)c1 | > 100 nM | > 100 nM | > 100 nM | > 100 nM | > 100 nM | 115% | 123% | – | – | – | – | 121% | 135% | – | 130% | 139% | 127% | 128% | 69.6% | 68% | viability, T/C (second compound 0.1 µM, first compound 0.000316 µM): 89%; viability, T/C (second compound 0.1 µM, first compound 0.001 µM): 83.9%; viability, T/C (second compound 0.1 µM, first compound 0.00316 µM): 100%; viability, T/C (second compound 0.1 µM, first compound 0.01 µM): 107%; viability, T/C (second compound 0.316 µM, first compound 0.000316 µM): 109%; viability, T/C (second compound 0.316 µM, first compound 0.001 µM): 103%; viability, T/C (second compound 0.316 µM, first compound 0.00316 µM): 95%; viability, T/C (second compound 0.316 µM, first compound 0.01 µM): 110%; viability, T/C (second compound 1 µM, first compound 0.000316 µM): 92.5%; viability, T/C (second compound 1 µM, first compound 0.001 µM): 97.1%; viability, T/C (second compound 1 µM, first compound 0.00316 µM): 102%; viability, T/C (second compound 1 µM, first compound 0.01 µM): 107%; viability, T/C (second compound 3.16 µM, first compound 0.000316 µM): 102%; viability, T/C (second compound 3.16 µM, first compound 0.001 µM): 95.3%; viability, T/C (second compound 3.16 µM, first compound 0.00316 µM): 99.3%; viability, T/C (second compound 3.16 µM, first compound 0.01 µM): 112%; viability, T/C (second compound 10 µM, first compound 0.000316 µM): 77.4%; viability, T/C (second compound 10 µM, first compound 0.001 µM): 90.7%; viability, T/C (second compound 10 µM, first compound 0.00316 µM): 83.7%; viability, T/C (second compound 10 µM, first compound 0.01 µM): 66.9%
3 | NS(=O)(=O)OCC1CC(n2ccc3c(NC4CCc5ccccc54)ncnc32)CC1O (stereo not given) + Cc1cncc(-c2nc(NCCc3c[nH]c4ccccc34)c3ncn(C(C)C)c3n2)c1 | 693 nM | 563 nM | 492 nM | 365 nM | 41 nM | 114% | 93.1% | 80.4% | 35.6% | 13.2% | 3.87% | 104% | 96.2% | 71.4% | 96% | 89.8% | 91.8% | 86.8% | 57.8% | 24.4% | viability, T/C [10]: 28.6%; viability, T/C [11]: 9.15%; viability, T/C [12]: 3.24%; viability, T/C [15]: 67.6%; viability, T/C [16]: 22.2%; viability, T/C [17]: 5.08%; viability, T/C [18]: 2.62%; viability, T/C [21]: 52.2%; viability, T/C [22]: 21.3%; viability, T/C [23]: 5%; viability, T/C [24]: 2.12%; viability, T/C [27]: 9.9%; viability, T/C [28]: 7.65%; viability, T/C [29]: 2.02%; viability, T/C [30]: 1.58%
4 | O=C(C=Cc1cccc(S(=O)(=O)Nc2ccccc2)c1)NO + Cc1cncc(-c2nc(NCCc3c[nH]c4ccccc34)c3ncn(C(C)C)c3n2)c1 | 955 nM | 832 nM | 818 nM | 756 nM | 168 nM | 98.9% | 89.6% | 94% | 47.9% | 8.19% | 2.59% | 92.1% | 89.1% | 94.8% | 105% | 95.7% | 106% | 103% | 76.9% | 67.9% | viability, T/C [10]: 42%; viability, T/C [11]: 7.8%; viability, T/C [12]: 2.18%; viability, T/C [15]: 86.8%; viability, T/C [16]: 42.2%; viability, T/C [17]: 9.76%; viability, T/C [18]: 2.85%; viability, T/C [21]: 111%; viability, T/C [22]: 31.8%; viability, T/C [23]: 10.6%; viability, T/C [24]: 3.82%; viability, T/C [27]: 28.2%; viability, T/C [28]: 10.7%; viability, T/C [29]: 6.37%; viability, T/C [30]: 3.77%
